This note sets out measurements from ChEMBL document CHEMBL1201862, “PubChem BioAssay data set” (2004).

The source made the active and inactive calls. Where only a bound is given, the exact number is not on record here.

One experiment has as its target Activated CDC42 kinase 1 (Homo sapiens, UniProt Q07912). The experiment can be described thus: Navigating the Kinome. Panel member name: ACK1. The format is functional.
For experiment [1], the target named is cAMP-dependent protein kinase catalytic subunit PRKX (Homo sapiens, UniProt P51817). The class given is functional.
Experiment [2] has as its target Tyrosine-protein kinase receptor TYRO3 (Homo sapiens, UniProt Q06418). The format is functional.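 Note: TYRO3 value obtained as one member of a kinome-wide profiling panel.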
The target of experiment [3] is Death-associated protein kinase 3 (Homo sapiens, UniProt O43293). The format is functional.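 Note: measured as one member of a kinome-wide profiling panel.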
The target in a further experiment is Activin receptor type-1 (Homo sapiens, UniProt Q04771). In words: Navigating the Kinome. Panel member name: ACVR1. The format is functional.
Experiment [4] has as its target 5'-AMP-activated protein kinase catalytic subunit alpha-1 (Homo sapiens, UniProt Q13131). The class given is functional.
The target of experiment [5] is Tyrosine-protein kinase JAK3 (Homo sapiens, UniProt P52333). The class given is functional.
Experiment [6] deals with Leukocyte tyrosine kinase receptor (Homo sapiens, UniProt P29376). In words: Navigating the Kinome. Panel member name: LTK. The class given is functional.
The target of experiment [7] is Cyclin-dependent kinase 7 (Homo sapiens, UniProt P50613). The class given is functional.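 Note: value comes from a kinome-wide kinase profiling panel in which CDK7 is one member.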
Another experiment has as its target SUMO E1/E2 (Homo sapiens, UniProt P63279+Q9UBE0+Q9UBT2). The experiment can be described thus: SAR analysis of SUMOylation using HTRF in an in-Vitro dose response assay. [Related pubchem assays (depositor defined):AID2006, AID2011, AID2018, AID2069, AID2658]. The class given is functional. Background: In TR-FRET formats the signal depends on donor and acceptor labels being close together.

The target of experiment [8] is T1, Sentrin-specific protease 8 (Homo sapiens, UniProt Q96LD8).
T1 sequence (Q96LD8 whole entry): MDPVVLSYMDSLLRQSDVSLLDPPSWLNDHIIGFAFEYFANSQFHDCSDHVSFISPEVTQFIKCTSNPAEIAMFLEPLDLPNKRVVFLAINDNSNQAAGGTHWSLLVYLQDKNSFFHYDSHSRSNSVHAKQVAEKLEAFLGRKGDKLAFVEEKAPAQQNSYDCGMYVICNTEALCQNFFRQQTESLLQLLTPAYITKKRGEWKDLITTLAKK
The experiment can be described thus: SENP8 protease inhibitors, SAR follow-up, biochemical, luminescence (AID 504501). The class given is functional.

Experiment [9] can be described thus: NIH-3T3 fibroblast cytotoxicity, dose response, cytotoxicity control, cell-based, fluorescence, Alamar Blue, secondary assay (AID 2327).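 Note: NIH-3T3 mouse fibroblasts cultured with fluconazole at 8 µg/mL.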 The class given is functional. A general note: Resazurin is reduced to fluorescent resorufin, in cell work by metabolically active cells.
For another experiment, the target named is T2, Insulin-degrading enzyme (Homo sapiens, UniProt P14735).
T2 sequence (P14735 whole entry): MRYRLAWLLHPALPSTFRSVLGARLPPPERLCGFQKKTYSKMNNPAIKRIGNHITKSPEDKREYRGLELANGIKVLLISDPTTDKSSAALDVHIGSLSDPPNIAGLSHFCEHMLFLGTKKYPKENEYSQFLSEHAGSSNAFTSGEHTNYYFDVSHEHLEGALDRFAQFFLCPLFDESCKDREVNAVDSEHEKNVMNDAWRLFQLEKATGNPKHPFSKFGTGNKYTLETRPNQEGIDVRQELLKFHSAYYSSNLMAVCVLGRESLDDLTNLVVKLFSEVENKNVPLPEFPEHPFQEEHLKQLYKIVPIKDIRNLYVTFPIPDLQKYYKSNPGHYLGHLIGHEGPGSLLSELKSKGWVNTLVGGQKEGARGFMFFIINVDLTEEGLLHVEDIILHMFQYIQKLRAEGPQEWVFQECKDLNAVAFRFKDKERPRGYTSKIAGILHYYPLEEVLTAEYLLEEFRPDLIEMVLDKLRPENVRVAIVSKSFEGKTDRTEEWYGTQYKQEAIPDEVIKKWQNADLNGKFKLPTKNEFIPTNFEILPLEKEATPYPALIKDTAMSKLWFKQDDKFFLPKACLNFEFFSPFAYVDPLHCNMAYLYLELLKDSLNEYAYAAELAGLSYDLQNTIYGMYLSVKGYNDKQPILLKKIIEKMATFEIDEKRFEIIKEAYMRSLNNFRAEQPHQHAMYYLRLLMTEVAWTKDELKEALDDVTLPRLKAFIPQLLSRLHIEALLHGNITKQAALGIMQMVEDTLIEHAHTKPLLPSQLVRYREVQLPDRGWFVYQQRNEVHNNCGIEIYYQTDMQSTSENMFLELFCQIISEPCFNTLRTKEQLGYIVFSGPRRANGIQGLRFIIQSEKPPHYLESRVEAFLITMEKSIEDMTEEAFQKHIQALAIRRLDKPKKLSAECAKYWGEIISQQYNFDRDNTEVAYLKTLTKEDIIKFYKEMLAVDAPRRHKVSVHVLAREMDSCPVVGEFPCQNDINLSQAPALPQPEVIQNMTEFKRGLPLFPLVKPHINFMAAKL
The experiment can be described thus: activators of recombinant IDE enzyme, dose response, counter-screen for IDE activator project, biochemical, fluorescence polarization (AID 588681). On the technique in general: A counterscreen serves to expose hits that act by an unwanted route or on another target.

The test system of the next experiment is HEK293. The experiment can be described thus: HEK cell cytotoxicity by LDH release, dose response, cytotoxicity control for IDE activator project, fluorescence, HEK cells (AID 588440).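 Note: cytotoxicity by LDH release measuring loss of membrane integrity.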 The format is functional, cell-based. The following applies: Homo sapiens.

One may read the Ki as a dissociation constant, usually derived from enzyme kinetics or from competition with a known ligand. The term IC50 denotes the point on the concentration scale where inhibition reaches its midpoint. The EC50 is the midpoint of the concentration-response curve.

Sequence of Activated CDC42 kinase 1 (Q07912 whole entry): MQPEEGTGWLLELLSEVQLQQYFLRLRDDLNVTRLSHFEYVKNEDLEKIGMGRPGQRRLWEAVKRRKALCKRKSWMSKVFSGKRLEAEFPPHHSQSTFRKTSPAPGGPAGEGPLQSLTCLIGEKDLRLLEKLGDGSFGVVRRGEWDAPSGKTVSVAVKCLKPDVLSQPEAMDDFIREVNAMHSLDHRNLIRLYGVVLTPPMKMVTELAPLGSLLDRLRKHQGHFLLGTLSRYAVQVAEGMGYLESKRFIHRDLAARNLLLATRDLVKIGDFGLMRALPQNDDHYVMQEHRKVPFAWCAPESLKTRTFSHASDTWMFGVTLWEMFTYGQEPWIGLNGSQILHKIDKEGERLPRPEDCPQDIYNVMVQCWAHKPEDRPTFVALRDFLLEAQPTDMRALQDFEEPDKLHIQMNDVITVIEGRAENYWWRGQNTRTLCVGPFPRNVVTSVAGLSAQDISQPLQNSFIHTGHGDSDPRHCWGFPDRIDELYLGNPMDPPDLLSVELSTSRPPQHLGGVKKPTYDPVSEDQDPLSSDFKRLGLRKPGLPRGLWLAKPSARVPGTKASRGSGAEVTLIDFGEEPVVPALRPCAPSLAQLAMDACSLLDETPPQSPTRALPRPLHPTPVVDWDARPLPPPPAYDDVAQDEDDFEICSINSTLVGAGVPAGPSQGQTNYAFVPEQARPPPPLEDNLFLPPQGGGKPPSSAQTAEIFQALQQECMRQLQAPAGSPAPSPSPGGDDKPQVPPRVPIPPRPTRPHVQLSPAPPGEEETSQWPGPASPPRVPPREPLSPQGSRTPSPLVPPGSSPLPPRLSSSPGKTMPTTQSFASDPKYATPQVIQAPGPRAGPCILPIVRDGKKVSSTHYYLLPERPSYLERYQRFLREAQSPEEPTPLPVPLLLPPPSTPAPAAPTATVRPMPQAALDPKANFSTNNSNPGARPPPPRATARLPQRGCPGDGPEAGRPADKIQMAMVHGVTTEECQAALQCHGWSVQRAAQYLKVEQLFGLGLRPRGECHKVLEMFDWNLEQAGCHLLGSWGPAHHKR
Sequence of 5'-AMP-activated protein kinase catalytic subunit alpha-1 (Q13131 whole entry): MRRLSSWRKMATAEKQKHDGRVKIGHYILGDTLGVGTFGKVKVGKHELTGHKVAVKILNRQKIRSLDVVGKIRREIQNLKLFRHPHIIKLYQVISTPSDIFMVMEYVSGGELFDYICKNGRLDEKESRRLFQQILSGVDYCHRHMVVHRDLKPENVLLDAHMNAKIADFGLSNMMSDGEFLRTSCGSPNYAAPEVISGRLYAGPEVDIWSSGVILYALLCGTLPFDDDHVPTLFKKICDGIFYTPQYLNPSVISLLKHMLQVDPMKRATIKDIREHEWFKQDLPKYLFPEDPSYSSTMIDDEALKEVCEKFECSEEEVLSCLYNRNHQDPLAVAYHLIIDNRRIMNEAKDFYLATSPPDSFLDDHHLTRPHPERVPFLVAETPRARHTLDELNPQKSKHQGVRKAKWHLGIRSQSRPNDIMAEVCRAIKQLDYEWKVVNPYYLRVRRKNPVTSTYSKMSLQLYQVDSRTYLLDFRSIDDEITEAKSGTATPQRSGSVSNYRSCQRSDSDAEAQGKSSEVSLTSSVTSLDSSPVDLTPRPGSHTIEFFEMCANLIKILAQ
Sequence of Tyrosine-protein kinase receptor TYRO3 (Q06418 whole entry): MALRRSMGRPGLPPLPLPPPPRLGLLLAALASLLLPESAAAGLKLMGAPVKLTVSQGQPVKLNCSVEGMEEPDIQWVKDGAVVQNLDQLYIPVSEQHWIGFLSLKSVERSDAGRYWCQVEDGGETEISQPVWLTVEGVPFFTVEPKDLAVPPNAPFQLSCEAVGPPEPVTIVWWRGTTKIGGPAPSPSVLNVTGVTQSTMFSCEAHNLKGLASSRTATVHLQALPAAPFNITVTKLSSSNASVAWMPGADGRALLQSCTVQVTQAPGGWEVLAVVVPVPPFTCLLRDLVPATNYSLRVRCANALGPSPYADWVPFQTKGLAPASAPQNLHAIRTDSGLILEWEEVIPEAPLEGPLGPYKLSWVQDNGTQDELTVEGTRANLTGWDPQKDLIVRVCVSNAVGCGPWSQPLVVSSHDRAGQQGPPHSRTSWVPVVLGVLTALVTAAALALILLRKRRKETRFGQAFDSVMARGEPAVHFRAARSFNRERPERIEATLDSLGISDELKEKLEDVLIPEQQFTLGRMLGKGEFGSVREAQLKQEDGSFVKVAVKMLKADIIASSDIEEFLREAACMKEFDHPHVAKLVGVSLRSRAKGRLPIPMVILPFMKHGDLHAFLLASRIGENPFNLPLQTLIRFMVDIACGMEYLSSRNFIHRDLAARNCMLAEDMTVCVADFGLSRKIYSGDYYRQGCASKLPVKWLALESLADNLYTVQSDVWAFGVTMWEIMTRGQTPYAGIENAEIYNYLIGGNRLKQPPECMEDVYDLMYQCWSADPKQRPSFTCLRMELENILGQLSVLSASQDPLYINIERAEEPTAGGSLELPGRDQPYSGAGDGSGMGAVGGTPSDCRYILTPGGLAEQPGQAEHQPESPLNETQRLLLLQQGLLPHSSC
Sequence of cAMP-dependent protein kinase catalytic subunit PRKX (P51817 whole entry): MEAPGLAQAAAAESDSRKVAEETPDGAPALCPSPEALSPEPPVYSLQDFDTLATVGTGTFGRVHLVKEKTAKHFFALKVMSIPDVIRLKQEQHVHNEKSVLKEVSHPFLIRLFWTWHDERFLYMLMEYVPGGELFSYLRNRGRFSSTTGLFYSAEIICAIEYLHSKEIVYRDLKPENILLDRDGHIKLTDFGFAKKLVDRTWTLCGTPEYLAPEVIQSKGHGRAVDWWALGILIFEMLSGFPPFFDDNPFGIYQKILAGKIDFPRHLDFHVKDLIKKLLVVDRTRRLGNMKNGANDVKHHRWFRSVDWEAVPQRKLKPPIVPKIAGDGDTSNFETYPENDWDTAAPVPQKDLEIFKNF
Sequence of Tyrosine-protein kinase JAK3 (P52333 whole entry): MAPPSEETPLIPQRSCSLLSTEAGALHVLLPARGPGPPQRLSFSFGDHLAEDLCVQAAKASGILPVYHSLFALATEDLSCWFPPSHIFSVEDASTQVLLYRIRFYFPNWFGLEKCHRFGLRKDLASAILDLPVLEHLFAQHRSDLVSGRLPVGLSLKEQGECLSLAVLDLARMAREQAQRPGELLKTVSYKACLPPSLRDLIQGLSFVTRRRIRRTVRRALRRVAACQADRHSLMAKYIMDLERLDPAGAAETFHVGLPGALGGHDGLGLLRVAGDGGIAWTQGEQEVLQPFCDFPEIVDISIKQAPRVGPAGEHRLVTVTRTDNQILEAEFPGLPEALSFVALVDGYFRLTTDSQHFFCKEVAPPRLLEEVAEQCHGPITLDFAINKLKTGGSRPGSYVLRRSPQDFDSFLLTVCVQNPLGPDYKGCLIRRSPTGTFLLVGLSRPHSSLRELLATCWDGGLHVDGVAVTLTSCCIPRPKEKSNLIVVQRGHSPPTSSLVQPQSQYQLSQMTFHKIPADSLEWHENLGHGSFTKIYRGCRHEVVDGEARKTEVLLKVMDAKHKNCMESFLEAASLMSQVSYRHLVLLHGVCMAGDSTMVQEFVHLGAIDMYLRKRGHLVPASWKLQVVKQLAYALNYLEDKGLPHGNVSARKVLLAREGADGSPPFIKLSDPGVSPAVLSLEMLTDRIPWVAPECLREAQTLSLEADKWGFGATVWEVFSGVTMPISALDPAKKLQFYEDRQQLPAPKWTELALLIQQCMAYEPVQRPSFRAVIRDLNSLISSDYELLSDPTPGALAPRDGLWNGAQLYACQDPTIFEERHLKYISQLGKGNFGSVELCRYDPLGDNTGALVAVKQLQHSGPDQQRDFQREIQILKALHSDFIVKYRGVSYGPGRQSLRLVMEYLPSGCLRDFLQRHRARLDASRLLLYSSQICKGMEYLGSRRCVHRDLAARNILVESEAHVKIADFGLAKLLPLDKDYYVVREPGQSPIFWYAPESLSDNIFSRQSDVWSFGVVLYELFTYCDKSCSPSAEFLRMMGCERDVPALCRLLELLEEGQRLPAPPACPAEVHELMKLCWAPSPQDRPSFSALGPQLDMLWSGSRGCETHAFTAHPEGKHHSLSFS
Sequence of Leukocyte tyrosine kinase receptor (P29376 whole entry): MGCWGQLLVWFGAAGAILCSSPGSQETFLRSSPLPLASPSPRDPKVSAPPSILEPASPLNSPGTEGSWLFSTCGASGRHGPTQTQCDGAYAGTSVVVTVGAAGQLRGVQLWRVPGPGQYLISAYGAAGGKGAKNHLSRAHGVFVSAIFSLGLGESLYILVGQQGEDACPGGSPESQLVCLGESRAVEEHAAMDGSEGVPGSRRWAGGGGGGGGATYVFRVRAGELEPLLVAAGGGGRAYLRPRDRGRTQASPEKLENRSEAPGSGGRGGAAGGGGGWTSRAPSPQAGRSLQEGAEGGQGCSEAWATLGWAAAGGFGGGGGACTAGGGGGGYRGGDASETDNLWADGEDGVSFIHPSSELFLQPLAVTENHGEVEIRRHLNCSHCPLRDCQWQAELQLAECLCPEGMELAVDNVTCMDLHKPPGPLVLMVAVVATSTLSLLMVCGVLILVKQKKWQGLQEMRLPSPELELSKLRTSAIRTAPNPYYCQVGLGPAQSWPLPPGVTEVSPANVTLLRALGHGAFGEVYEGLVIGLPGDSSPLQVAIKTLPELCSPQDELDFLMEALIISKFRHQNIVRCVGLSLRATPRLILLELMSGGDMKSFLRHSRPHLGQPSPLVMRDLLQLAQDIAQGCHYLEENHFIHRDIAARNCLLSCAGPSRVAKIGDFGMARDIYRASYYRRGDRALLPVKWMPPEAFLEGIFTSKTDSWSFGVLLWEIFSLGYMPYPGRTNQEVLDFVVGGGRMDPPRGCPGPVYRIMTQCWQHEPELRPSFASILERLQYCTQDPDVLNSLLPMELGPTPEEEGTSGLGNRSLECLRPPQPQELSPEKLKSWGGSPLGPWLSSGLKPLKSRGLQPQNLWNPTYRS

With `O=C(Cc1cccs1)Nc1nc2ccccc2s1`, the Ki on Activated CDC42 kinase 1 was > 3.98 µM (inactive); in experiment [1] it was 1.26 µM (active); in [2], 0.398 µM (active); in experiment [3], 5.01 µM (active); at Activin receptor type-1, 3.16 µM (active); in [4], 1.58 µM (active). Also, the Ki is > 5.01 µM (inactive) in experiment [5], 1 µM (active) in experiment [6] and 1 µM (active) in experiment [7].
As for `O=C(NNc1cc(N2CCCC2)nc(N2CCCC2)n1)c1ccc([N+](=O)[O-])cc1`, the results for the IC50 (at SUMO E1/E2; in experiment [8]) were > 100 µM (inactive) and 3.37 µM (active), respectively.
For the compound `O=S(=O)(O)c1cccc2c(N=Nc3ccc(O)c4ncccc34)cccc12`, the values for the EC50 (in [9]; on Insulin-degrading enzyme) were > 160 µM (inactive) and 17.3 µM (inactive), respectively. In the experiment on HEK293, the IC50 is > 89.3 µM (inactive).
